The values that follow come from patent publication US20230174526A1, “BENZOTHIAZOLYL BIARYL COMPOUND, AND PREPARATION METHOD AND USE” (SHANGHAI RINGENE BIOPHARMA CO., LTD., priority 2020, published 2023).

The test system of series [1] is phosphorylated ERK levels of MiaPaca-2. In words: ERK phosphorylation (western blot), MiaPaca-2. The format is cell-based. To be noted: Homo sapiens, MIA PaCa-2, 24 h. Here is the method:
(§1) Test method 3 (ERK phosphorylation): Miapaca-2 or H358 cells were inoculated at certain concentrations in 96-well plates and incubated overnight at 37° C., 5% CO2 in a cell culture incubator, and serial dilutions of the test compound (5 concentrations, 3-fold dilution) were added to the plates the next day for 24 h (Miapaca-2) or 3 h (H358), then lysis solution containing protease and phosphatase inhibitor were added to lyse the cells to extract proteins and western blot method was used to detect the level of p-ERK.
(In general: A western blot detects proteins with antibodies after separation by electrophoresis.)

For another series, the target named is hERG potassium channels (Homo sapiens, UniProt Q12809). The series can be described thus: hERG inhibition test. Format: cell-based. To be noted: highest test concentration 40 µM. (The hERG channel carries a current that helps repolarise heart muscle cells.)
Chain of hERG potassium channels (Q12809 whole entry): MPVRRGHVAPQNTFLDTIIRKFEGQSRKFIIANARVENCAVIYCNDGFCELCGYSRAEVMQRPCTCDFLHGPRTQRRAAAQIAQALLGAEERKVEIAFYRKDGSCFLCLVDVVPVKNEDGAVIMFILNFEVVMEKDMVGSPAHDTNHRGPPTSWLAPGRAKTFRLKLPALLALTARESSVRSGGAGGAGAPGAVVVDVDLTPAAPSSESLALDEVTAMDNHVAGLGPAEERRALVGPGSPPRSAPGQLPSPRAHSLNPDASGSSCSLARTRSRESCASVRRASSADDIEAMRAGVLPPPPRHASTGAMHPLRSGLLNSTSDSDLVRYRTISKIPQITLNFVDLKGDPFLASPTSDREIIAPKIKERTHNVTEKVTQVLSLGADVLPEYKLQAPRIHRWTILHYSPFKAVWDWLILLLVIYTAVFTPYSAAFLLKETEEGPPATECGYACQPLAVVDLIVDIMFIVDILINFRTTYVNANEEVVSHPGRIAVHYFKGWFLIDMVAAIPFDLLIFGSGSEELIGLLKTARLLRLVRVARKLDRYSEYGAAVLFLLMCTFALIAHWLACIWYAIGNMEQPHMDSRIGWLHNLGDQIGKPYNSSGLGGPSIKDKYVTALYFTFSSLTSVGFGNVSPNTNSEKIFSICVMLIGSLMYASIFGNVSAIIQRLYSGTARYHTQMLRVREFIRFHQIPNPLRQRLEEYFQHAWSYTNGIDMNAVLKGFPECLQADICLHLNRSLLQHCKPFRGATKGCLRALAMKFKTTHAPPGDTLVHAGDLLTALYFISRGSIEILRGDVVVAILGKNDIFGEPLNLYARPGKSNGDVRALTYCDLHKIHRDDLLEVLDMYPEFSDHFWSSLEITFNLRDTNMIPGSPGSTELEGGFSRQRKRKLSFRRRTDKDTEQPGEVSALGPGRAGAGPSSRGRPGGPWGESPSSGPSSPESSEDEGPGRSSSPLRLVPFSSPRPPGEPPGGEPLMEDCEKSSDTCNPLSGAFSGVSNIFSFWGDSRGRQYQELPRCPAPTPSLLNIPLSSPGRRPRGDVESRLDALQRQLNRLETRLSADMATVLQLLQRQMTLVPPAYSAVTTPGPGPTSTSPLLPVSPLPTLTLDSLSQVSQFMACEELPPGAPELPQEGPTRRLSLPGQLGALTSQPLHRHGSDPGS
Series [2] has as its system phosphorylated ERK levels of NCI-H358. In words: ERK phosphorylation (western blot), H358. Format: cell-based. To be noted: Homo sapiens, 3 h. As for the experimental part:
as §1

The target in another series is T1, CYP2C19 (Homo sapiens, UniProt P33261).
T1 construct: a system of 100 µL of human liver microsomes (final concentration 0.2 mg/mL); from tissue; host or cells: human liver microsomes
T1 sequence (P33261 whole entry): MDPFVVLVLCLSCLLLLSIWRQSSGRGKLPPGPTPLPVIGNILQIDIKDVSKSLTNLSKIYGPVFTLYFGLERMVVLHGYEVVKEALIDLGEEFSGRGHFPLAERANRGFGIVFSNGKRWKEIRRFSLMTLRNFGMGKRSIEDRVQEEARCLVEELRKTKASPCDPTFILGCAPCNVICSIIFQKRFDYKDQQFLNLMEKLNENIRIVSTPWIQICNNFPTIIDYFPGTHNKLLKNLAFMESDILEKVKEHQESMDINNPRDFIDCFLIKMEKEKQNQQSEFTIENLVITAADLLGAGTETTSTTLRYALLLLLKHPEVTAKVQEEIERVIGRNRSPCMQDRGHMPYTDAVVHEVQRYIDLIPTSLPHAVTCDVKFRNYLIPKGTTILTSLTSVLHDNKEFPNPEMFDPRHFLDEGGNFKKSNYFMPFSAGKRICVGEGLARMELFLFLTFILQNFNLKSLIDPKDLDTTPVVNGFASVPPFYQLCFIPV
The series can be described thus: Direct inhibition test (DI test), CYP2C19. Format: in vitro ADME. To be noted: human liver microsomes. Here is the method:
Direct inhibition test (DI test): direct inhibition warm incubation was performed with a system of 100 µL of human liver microsomes (final concentration 0.2 mg/mL) containing NADPH (final concentration 1 mM), 10 µM compound, positive inhibitor cocktail (ketoconazole 10 µM, quinidine 10 µM, sulfobenzyrazole 100 µM, α-naphthoflavone 10 µM, tranylcypromine 1000 µM), a negative control (BPS with 0.1% DMSO) and a mixed probe substrate (midazolam 10 µM, testosterone 100 µM, dextromethorphan 10 µM, diclofenac 20 µM, phenacetin100 µM, mephenytoin100 µM), and the reaction was terminated after a warm incubation for 20 min.The relative enzyme activity was calculated by measuring the relative amount of metabolites produced.
In general terms: Liver microsomes are vesicles of endoplasmic reticulum, rich in cytochrome P450 enzymes.

The next series addresses T2, KRAS^G12C/SOS1 (Homo sapiens, UniProt P01116, G12C).
T2 construct: purchased CisBio
The series can be described thus: KRAS^G12C/SOS1 protein-protein interaction Binding assay (CisBio kit). To be noted: class symbols. Here is the method:
CisBio’s KRAS^G12C/SOS1 kit was used to test the efficacy of the compound on inhibiting the protein-protein interaction between SOS1 and KRAS^G12Cby Binding assay.Results were expressed as IC50values.
Test methods: (1) the test compound was tested at a concentration of 1000 nM. Diluted to 3-fold diluted compound of a 200-fold final concentration of 100% DMSO solution in a 384-well plate at 10 concentrations. 50 nL of 200-fold final concentration of compound was transferred to the destination plate 384 well plate using a dispenser Echo 550.50 nL of 100% DMSO was added to the negative control wells and positive control wells; (2) 4-fold final concentration of Tag1 SOS1 solution was prepared using Diluent buffer; (3) 2.5 µL of 4-fold final concentration of Tag1 SOS1 solution was added to the 384-well plate; (4) 4-fold final concentration of Tag2 KRAS^G12C solution was prepared using Diluent buffer; (5) 2.5 µL of 4-fold final concentration of Tag2 KRAS^G12C solution was added to compound wells and positive control wells, respectively; 2.5 µL of diluent buffer was added to negative control wells; (6) the 384-well plate was centrifuged at 1000 rpm for 30 seconds, shaken and mixed, and incubated at room temperature for 15 min; (7) 1-fold final concentration of Anti Tag1 TB3+ solution and 1-fold final concentration of Anti Tag2 XL665 solution were prepared with Detection buffer, and 5 µL of the mixture was added to each well after mixing the two solutions; (8) the 384-well plate was centrifuged at 1000 rpm for 30 seconds, shaken and mixed, and incubated at room temperature for 120 minutes; (9) the Envision enzyme marker was used to read
Em665/620; (10) data analysis, calculation formula; where Min signal is the mean value of negative control wells, Max signal is the mean value of positive control wells.The log value of concentration was used as the X-axis and the percentage inhibition as the Y-axis to fit the quantitative efficacy curve using the log(inhibitor) vs. response Variable slope of the quantitative efficacy curve of the analytical software GraphPad Prism 5 to derive the IC50 value of each compound on the enzyme activity.The fitting formula was: Y=Bottom+(Top Bottom)/(1+10^A((LogIC50X)^∗ HillSlope)).

Series [3] can be described thus: In vivo pharmacokinetic parameter testing in mice. Details: species or system ICR mice. To be noted: for AUC(0-t) / clearance / half-life: male, ICR, mouse, plasma, iv(1 mg/kg); for AUC(0-t): read-out: Below the curve and AUC0-t; for clearance: read-out: Clearance rate Cl; for half-life: read-out: Half-life T½ (converted).
The next series concerns the target T3, CYP2C8 (Homo sapiens, UniProt P10632).
T3 sequence (P10632 1-490): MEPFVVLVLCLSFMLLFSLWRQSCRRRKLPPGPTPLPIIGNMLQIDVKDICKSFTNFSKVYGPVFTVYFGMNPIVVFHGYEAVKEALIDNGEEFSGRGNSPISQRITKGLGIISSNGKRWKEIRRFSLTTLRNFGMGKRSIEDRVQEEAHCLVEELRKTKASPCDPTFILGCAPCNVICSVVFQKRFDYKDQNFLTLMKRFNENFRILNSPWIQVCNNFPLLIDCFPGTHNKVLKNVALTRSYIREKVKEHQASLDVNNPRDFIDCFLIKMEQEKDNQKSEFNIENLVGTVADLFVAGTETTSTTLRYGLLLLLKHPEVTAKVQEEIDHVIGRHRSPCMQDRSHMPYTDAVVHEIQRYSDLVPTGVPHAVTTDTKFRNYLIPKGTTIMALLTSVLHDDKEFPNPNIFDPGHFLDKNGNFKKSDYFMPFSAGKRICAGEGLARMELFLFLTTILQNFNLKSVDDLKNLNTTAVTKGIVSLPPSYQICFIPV
In words: Direct inhibition test (DI test), CYP2C8. The format is in vitro ADME. To be noted: human liver microsomes.

Series [4] is described as follows: Metabolic stability assay, rat liver microsomes. The format is in vitro ADME. To be noted: rat liver microsomes 0.5 mg/mL, 1 µM compound, read-out: Liver microsomal stability (T½ /min) Rat. As for the experimental part: Metabolic stability assay: A warm incubation for metabolic stability was performed with a system of 150 µL of liver microsomes (final concentration 0.5 mg/mL) containing NADPH (final concentration 1 mM), 1 µM of the test compound and positive control midazolam or negative control atenolol, and the reaction was terminated with acetonitrile containing tinidazole at 0 min, 5 min, 10 min and 30 min, respectively. The reaction was vortexed for 10 min and centrifuged at 15000 rmp for 10 min, and 50 µL of supernatant was taken into the 96-well plate for sampling. The metabolic stability of the compound was calculated by measuring the relative reduction of the drugs.

T2 sequence (P01116 1-188 isoform P01116-2 G12C): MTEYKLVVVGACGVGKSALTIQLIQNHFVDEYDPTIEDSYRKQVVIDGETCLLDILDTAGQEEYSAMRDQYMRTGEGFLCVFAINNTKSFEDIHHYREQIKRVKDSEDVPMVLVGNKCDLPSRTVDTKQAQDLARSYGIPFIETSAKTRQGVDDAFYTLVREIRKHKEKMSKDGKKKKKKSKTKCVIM

What is called IC50 is the concentration that gives 50% inhibition. A lower IC50 goes with inhibition by little substance. Broadly, the clearance is the volume of plasma or blood freed of the substance per unit of time. For the compound `C=CC(=O)N1CCN(c2c(C#N)c(OC[C@@H]3CCCN3C)nc3c(F)c(-c4ccc(F)c5sc(N)nc45)c(Cl)cc23)CC1` [Example 3, 4-(4-Piperazinylacryloylpiperazin-1-yl)-7-(2-Amino-7-Fluorobenzo[d]Thiazol-4-yl)-6-Chloro-8-Fluoro-2-(((S)-1-Methylpyrrolidin-2-Yl)Methoxy)Quinoline-3-Cyano], the IC50 in series [1] was below 0.5 µM. Moreover, on hERG potassium channels, the IC50 is above 20 µM. Further, in series [2], the IC50 is below 0.5 µM. On CYP2C19, the IC50 is above 10 µM. Moreover, the IC50 at KRAS^G12C/SOS1 is below 50 nM. For the same compound, in series [3] (in words), the “AUC compared to the comparative compound 1” value is recorded as “significantly increased”, the “clearance rate Cl compared to the comparative compound 1” value is given as “significantly lower”, the “in vivo metabolic half-life compared to the comparative compound 1” value was “significantly longer” and the “pharmacokinetic properties in mice compared to comparative compound 1” value was “significantly better”. For the same compound, in series [3], the AUC(0-t) came out at 4.09 ± 0.373 µM·h, the clearance was found to be 6.35 ± 0.67 mL/min/kg and the half-life was 390 min. At CYP2C8, the IC50 at 20 min was above 10 µM.
On hERG potassium channels, `C=CC(=O)N1C[C@@H]2C(=O)N(C)c3cnc4c(F)c(-c5ccc(F)c6sc(N)nc56)c(Cl)cc4c3N2C[C@H]1C` (single isomer, unassigned) [Example 17-1] yielded an IC50 above 20 µM. Besides, at CYP2C19, the 50% inhibitory concentration (IC50) was above 10 µM. For the same compound, the IC50 at KRAS^G12C/SOS1 was 50 to 200 nM. For the same compound, in series [3] (in words), the “AUC compared to the comparative compound 1” value is on record as “significantly increased”, the “clearance rate Cl compared to the comparative compound 1” value is on record as “significantly lower” and the “pharmacokinetic properties in mice compared to comparative compound 1” value was “significantly better”. Further, in series [3], the AUC(0-t) came out at 3.31 ± 0.187 µM·h, the clearance was determined as 9.04 ± 0.5 mL/min/kg and the half-life is 66 min. On CYP2C8, this compound showed an IC50 at 20 min above 10 µM. Further, the half-life at 1 µM in series [4] was above 30 min.
For the compound `C=CC(=O)N1CCN(c2c(C#N)cnc3c(F)c(-c4ccc(F)c5sc(N)nc45)c(Cl)cc23)CC1` [Example 8], the half-maximal inhibitory concentration (IC50) in series [1] was below 0.5 µM. For the same compound, the IC50 against hERG potassium channels is above 20 µM. Further, the IC50 in series [2] is below 0.5 µM. This compound came in with an IC50 at CYP2C19 above 10 µM. The same compound registered an IC50 at KRAS^G12C/SOS1 below 50 nM. In series [3] (in words), the “AUC compared to the comparative compound 1” value was “significantly increased”, the “clearance rate Cl compared to the comparative compound 1” value was “significantly lower” and the “pharmacokinetic properties in mice compared to comparative compound 1” value is “significantly better”. In series [3], the AUC(0-t) is 2.85 ± 0.363 µM·h, the clearance amounted to 11.5 ± 1.52 mL/min/kg and the half-life was 31.2 min. Besides, the IC50 at 20 min on CYP2C8 was above 10 µM. The half-life at 1 µM in series [4] is above 30 min.
As to `C=CC(=O)N1CCN(c2c(C#N)c(N3CC(N(C)C)C3)nc3c(F)c(-c4ccc(F)c5sc(N)nc45)c(Cl)cc23)CC1` [Example 21, 4-(4-acryloyl Piperazin-1-yl)-7-(2-Amino-7-Fluorobenzo [d] Thiazol-4-yl) -6-Chloro-2-(3-(Dimethylamino) Azetidine-1-yl)-8-Fluoroquinolin-3 -Cyano], the IC50 in series [1] was below 0.5 µM; against hERG potassium channels, above 20 µM; in series [2], below 0.5 µM; against CYP2C19, above 10 µM; at KRAS^G12C/SOS1, below 50 nM. Moreover, the “pharmacokinetic properties in mice compared to comparative compound 1” value in series [3] (in words) is reported as “significantly better”. In addition, the AUC(0-t) in series [3] was determined as 1.29 ± 0.07 µM·h. For the same compound, the clearance in series [3] stood at 21.6 ± 1.05 mL/min/kg. Also, the half-life in series [3] is 78 min. The compound further had an IC50 at 20 min against CYP2C8 above 10 µM. Besides, the half-life at 1 µM in series [4] was above 30 min.
Turning to `C=CC(=O)N1CCN(c2nc(OC[C@@H]3CCCN3C)nc3c(F)c(-c4ccc(F)c5sc(N)nc45)c(Cl)cc23)C[C@H]1C` [Example 11, 1-((2R)-4-(7-(2-Amino-7-Fluorobenzo [d] Thiazol-4-yl) -6-Chloro-8-Fluoro-2-(((S)-1-Methylpyrrolidin-2-yl) Methoxy) Quinazolin-4-yl)-2-Methylpiperazin-1-yl) Prop-2-En-1-One], the IC50 is below 0.5 µM in series [1]; above 20 µM against hERG potassium channels; below 0.5 µM in series [2]; above 10 µM against CYP2C19; 50 to 200 nM at KRAS^G12C/SOS1. Moreover, the IC50 at 20 min against CYP2C8 is above 10 µM. For the same compound, the half-life at 1 µM in series [4] was above 30 min.
